From patent US12691070B2, “Cationic lipids and preparation method thereof” (RiboX Therapeutics HK Limited, priority 2023, dated 2026)

Key:
[1] = tested on: BALB/C mice; assay: In vivo expression, whole-body luminescence (IVIS); settings: cirRNA (SEQ ID NO: 1) LNPs, BALB/C mice
Description: 6-8 week old, female BALB/C mice were injected with 0.05 mg*kg-1 of RNA-LNPs encoding for firefly-luciferase by intravenous injection. At 6 hours post injection, animals were intraperitoneally injected with 15 mg/ml of Luciferin substrate and whole-body luminescence was determined by a bioluminescent in vivo imaging system (IVIS).

[2] = tested on: RAW 264.7 cells; assay: In vitro expression of firefly-luciferase, RAW 264.7; type: cell-based; settings: cirRNA (SEQ ID NO: 1) LNPs; firefly-luciferase luminescence; RAW 264.7 cells
Summary of the method: (§1)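 Cells were transfected with firefly-luciferase-encoding RNA-LNPs at 100 ng/mL. After 72 hours they were washed and lysed, and luciferase activity in the lysates was read by luminometry.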

[3] = tested on: Hep G2 cells; assay: In vitro expression of firefly-luciferase, Hep G2; type: cell-based; settings: cirRNA (SEQ ID NO: 1) LNPs; firefly-luciferase luminescence; Hep G2 cells
Summary of the method: as §1

[4] = RNA encapsulation efficacy by Quant-IT Ribogreen kit; type: physicochemical; settings: LNP with cirRNA (SEQ ID NO: 1)
Summary of the method: (§2)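 LNPs of ionizable lipid/DSPC/cholesterol/DMG-PEG 2000 (50:10:38.5:1.5) made by microfluidic mixing of luciferase circRNA or mRNA in pH 4.5 acetate with lipids in ethanol (3:1, 12 ml/min), ionizable lipid:nucleotide 15 or 6, then dialyzed against PBS. Size, PDI (DLS) and zeta potential on Zetasizer; encapsulation by Ribogreen ± Triton X-100.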

[5] = LNP zeta potential (Zetasizer); type: physicochemical; settings: LNP with cirRNA (SEQ ID NO: 1)
Summary of the method: as §2

[6] = tested on: RAW 264.7 cells; assay: In vitro toxicity (CellTiter-Glo cell viability), RAW 264.7; type: cell-based; settings: cirRNA (SEQ ID NO: 1) LNPs; RAW 264.7 cells;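 also: percent of untreated cells luminescence signal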
Summary of the method: (§3)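 First, cells receive RNA-LNPs at 1 μg/mL by transfection. After 72 hours, CellTiter-Glo reagent is added per kit protocol. Luminescence is then read and converted to cell viability.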

[7] = LNP size and polydispersity index (PDI) by dynamic light scattering; type: physicochemical; settings: LNP with cirRNA (SEQ ID NO: 1); for Size: in nm (unit assumed)
Summary of the method: as §2

[8] = tested on: Hep G2 cells; assay: In vitro toxicity (CellTiter-Glo cell viability), Hep G2; type: cell-based; settings: cirRNA (SEQ ID NO: 1) LNPs; Hep G2 cells;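 also: percent of untreated cells luminescence signal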
Summary of the method: as §3

| SMILES | Encapsulation Efficiency % [4] | Zeta (mV) [5] | PDI [7] | Size [7] | In vivo Expression (Whole Body) [1] | In vitro Expression RAW [2] | In vitro Expression HepG2 [3] | In vitro Viability RAW [6] | In vitro Viability HepG2 [8] |
| --- | --- | --- | --- | --- | --- | --- | --- | --- | --- |
| CCCCCCCC/C=C\CCCCCCCCN(CCCCCCCCOC(=O)C(CCCCCC)CCCCCCCC)CCOC(=O)NCCCn1ccnc1 (stereo not drawn) [Lipid 217] | 94% | 1.061 mV | 0.1439 | 60.05 | 7.35E+06 | 8.05E+03 | 2.45E+04 | 90% | 82% |
| CCCCCCCC/C=C\CCCCCCCCN(CCCCCCCCOC(=O)C(CCCCCC)CCCCCCCC)CCOC(=O)NCCN1CCCC1 (stereo not drawn) [Lipid 218] | 96% | 5.94 mV | 0.3124 | 96.36 | 7.53E+07 | 9.16E+04 | 5.25E+06 | 62% | 71% |
| CCCCCCCC/C=C\CCCCCCCCN(CCCCCCCCOC(=O)C(CCCCCC)CCCCCCCC)CCOC(=O)NCCN1CCCCC1 (stereo not drawn) [Lipid 219] | 93% | 0.7668 mV | 0.1125 | 76.57 | 1.34E+08 | 3.53E+04 | 7.09E+05 | 80% | 58% |
| CCCCCCCCCCCOC(=O)CCCCCN(CCCCCCCCOC(=O)C(CCCCCC)CCCCCCCC)CCOC(=O)NCCN(C)C (stereo not drawn) [Lipid 220] | 96% | 10.78 mV | 0.304 | 112.7 | 1.45E+07 | 1.52E+04 | 3.55E+06 | 98% | 89% |
| CCCCCCCCCCCOC(=O)CCCCCN(CCCCCCCCOC(=O)C(CCCCCC)CCCCCCCC)CCOC(=O)NCc1ncc[nH]1 (stereo not drawn) [Lipid 221] | 91% | −1.368 mV | 0.1852 | 65.7 | 1.79E+07 | 5.03E+05 | 2.82E+05 | 83% | 87% |
| CCCCCCCCCCCOC(=O)CCCCCN(CCCCCCCCOC(=O)C(CCCCCC)CCCCCCCC)CCOC(=O)NCCN1CCN(C)CC1 (stereo not drawn) [Lipid 222] | 97% | 26.75 mV | 0.4109 | 98.73 | 1.59E+06 | 8.85E+04 | 1.63E+06 | 87% | 42% |
| CCCCCCCCCCCOC(=O)CCCCCN(CCCCCCCCOC(=O)C(CCCCCC)CCCCCCCC)CCOC(=O)NCCN1CCOCC1 (stereo not drawn) [Lipid 223] | 92% | −2.046 mV | 0.08837 | 60.01 | 5.53E+06 | 4.76E+04 | 6.42E+04 | 76% | 92% |
| CCCCCCCCCCCOC(=O)CCCCCN(CCCCCCCCOC(=O)C(CCCCCC)CCCCCCCC)CCOC(=O)NCCCN(C)C (stereo not drawn) [Lipid 224] | 97% | 27.23 mV | 0.4284 | 86.14 | 5.05E+05 | 6.89E+03 | 3.58E+05 | 73% | 90% |
| CCCCCCCCCCCOC(=O)CCCCCN(CCCCCCCCOC(=O)C(CCCCCC)CCCCCCCC)CCOC(=O)NCCN1CCCC1 (stereo not drawn) [Lipid 226] | 95% | 14.86 mV | 0.298 | 115.7 | 2.20E+07 | 9.79E+03 | 7.79E+05 | 108% | 91% |
| CCCCCCCCCCCOC(=O)CCCCCN(CCCCCCCCOC(=O)C(CCCCCC)CCCCCCCC)CCOC(=O)NCCN1CCCCC1 (stereo not drawn) [Lipid 227] | 92% | 4.217 mV | 0.1088 | 79.97 | 9.21E+07 | 1.99E+05 | 4.71E+05 | 83% | 82% |
| CCCCC/C=C\CCOC(=O)CCCCCN(CCCCCC(=O)OCC(CCCCCCCC)CCCCCCCCCC)CCOC(=O)NCCN1CCCC1 (stereo not drawn) [Lipid 244] | 96% | −0.164 mV | 0.3577 | 87.4 | 3.95E+07 | 9.56E+02 | 3.62E+06 | 90% | 94% |

Second part, led by results:

| Encapsulation Efficiency % [4] | Zeta (mV) [5] | PDI [7] | Size [7] | SMILES | In vivo Expression (Whole Body) [1] | In vitro Expression RAW [2] | In vitro Expression HepG2 [3] | In vitro Viability RAW [6] | In vitro Viability HepG2 [8] |
| --- | --- | --- | --- | --- | --- | --- | --- | --- | --- |
| 95% | 5.434 mV | 0.3463 | 74.91 | CCCCC/C=C\C/C=C\CCCCCCCCN(CCCCCCCC(=O)OC(CCCCCCCC)CCCCCCCC)CCCOC(=O)NCCCN(CC)CC [Lipid 272] | 6.35E+06 | 1.34E+06 | 1.01E+07 | 121% | 97% |
| 95% | 1.543 mV | 0.257 | 88.34 | CCCCC/C=C\C/C=C\CCCCCCCCN(CCCCCCCC(=O)OC(CCCCCCCC)CCCCCCCC)CCCOC(=O)NCCN1CCN(C)CC1 [Lipid 273] | 5.16E+06 | 1.35E+06 | 6.48E+06 | 121% | 93% |
| 94% | −2.714 mV | 0.112 | 50.6 | CCCCC/C=C\C/C=C\CCCCCCCCN(CCCCCCCC(=O)OC(CCCCCCCC)CCCCCCCC)CCCOC(=O)NCCN1CCOCC1 [Lipid 274] | 2.06E+07 | 4.30E+05 | 4.11E+06 | 127% | 97% |
| 95% | 6.337 mV | 0.2727 | 60 | CCCCC/C=C\C/C=C\CCCCCCCCN(CCCCCCCC(=O)OC(CCCCCCCC)CCCCCCCC)CCCOC(=O)NCCCN(C)C [Lipid 275] | 3.66E+06 | 4.30E+05 | 7.54E+06 | 129% | 102% |
| 92% | −0.6853 mV | 0.2188 | 76.75 | CCCCC/C=C\C/C=C\CCCCCCCCN(CCCCCCCC(=O)OC(CCCCCCCC)CCCCCCCC)CCCOC(=O)NCCN1CCCC1 [Lipid 277] | 7.29E+07 | 8.13E+06 | 1.17E+07 | 121% | 89% |
| 95% | −0.06404 mV | 0.2722 | 87.32 | CCCCCCCCC(CCCCCCCC)OC(=O)CCCCCCCN(CCCCCCCCOC(=O)C(CCCCCC)CCCCCCCC)CCNC(=O)OCCN(C)C (stereo not drawn) [Lipid 279] | 3.67E+07 | 1.62E+05 | 5.05E+06 | 55% | 23% |
| 92% | −2.69 mV | 0.1901 | 70.01 | CCCCCCCCC(CCCCCCCC)OC(=O)CCCCCCCN(CCCCCCCCOC(=O)C(CCCCCC)CCCCCCCC)CCCOC(=O)NCc1ncc[nH]1 (stereo not drawn) [Lipid 345] | 2.49E+06 | 2.20E+05 | 2.57E+06 | 102% | 99% |
| 95% | −0.00452 mV | 0.264 | 111.1 | CCCCCCCCC(CCCCCCCC)OC(=O)CCCCCCCN(CCCCCCCCOC(=O)C(CCCCCC)CCCCCCCC)CCCOC(=O)NCCCN(CC)CC (stereo not drawn) [Lipid 346] | 3.59E+06 | 1.46E+05 | 1.02E+06 | 93% | 73% |
